For orientation: Ki means the dissociation constant of the complex between target and ligand, obtained from inhibition or displacement. High values mean lower affinity, low ones higher affinity.

Bridge positions count the residues as written; N and C are the ends. Peptide text beside a SMILES is read from it.

Test [1] deals with T1, Somatostatin receptor type 4 (Homo sapiens, UniProt P31391). The test is described as follows: Inhibition of human somatostatin receptor type 4.
The target of test [2] is T2, Somatostatin receptor type 2 (Homo sapiens, UniProt P30874). Nature of the test: Inhibition of human somatostatin receptor type 2.
T2 sequence (P30874 whole entry): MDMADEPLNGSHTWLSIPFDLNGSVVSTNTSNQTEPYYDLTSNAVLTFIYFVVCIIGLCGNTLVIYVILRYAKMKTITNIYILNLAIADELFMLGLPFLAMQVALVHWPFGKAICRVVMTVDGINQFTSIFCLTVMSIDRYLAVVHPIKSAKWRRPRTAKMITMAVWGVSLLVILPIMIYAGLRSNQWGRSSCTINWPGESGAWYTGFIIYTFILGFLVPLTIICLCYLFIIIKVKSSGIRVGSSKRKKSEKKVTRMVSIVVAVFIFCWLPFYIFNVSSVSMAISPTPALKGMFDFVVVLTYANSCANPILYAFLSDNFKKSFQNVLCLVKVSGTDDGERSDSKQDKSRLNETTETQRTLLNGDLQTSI
The target in test [3] is T1, Somatostatin receptor type 4. Nature of the test: Inhibition of human somatostatin receptor type 4 (n=5).
The target in test [4] is T2, Somatostatin receptor type 2. The test is described as follows: Inhibition of human somatostatin receptor type 2 (n=6).

T1 sequence (P31391 whole entry): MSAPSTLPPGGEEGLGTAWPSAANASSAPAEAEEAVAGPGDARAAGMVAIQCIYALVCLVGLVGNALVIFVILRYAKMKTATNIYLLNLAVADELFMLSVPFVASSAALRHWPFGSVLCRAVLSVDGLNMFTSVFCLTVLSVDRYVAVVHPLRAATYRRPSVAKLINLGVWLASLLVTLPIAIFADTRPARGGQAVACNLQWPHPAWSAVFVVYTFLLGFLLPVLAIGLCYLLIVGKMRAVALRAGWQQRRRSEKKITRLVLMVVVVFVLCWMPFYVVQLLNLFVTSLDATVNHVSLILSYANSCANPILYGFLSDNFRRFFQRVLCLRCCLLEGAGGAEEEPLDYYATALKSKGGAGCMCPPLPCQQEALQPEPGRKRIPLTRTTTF

In the case of `C[C@H](N)C(=O)NCC(=O)N[C@H]1CSSC[C@@H](C(=O)O)NC(=O)[C@H](CO)NC(=O)[C@H]([C@@H](C)O)NC(=O)[C@H](Cc2cnccn2)NC(=O)[C@H]([C@@H](C)O)NC(=O)[C@H](CCCCN)NC(=O)[C@@H](Cc2c[nH]c3ccccc23)NC(=O)[C@H](Cc2ccccc2)NC(=O)[C@H](Cc2ccccc2)NC(=O)[C@H](CC(N)=O)NC(=O)[C@H](CCCCN)NC1=O`, the values for the Ki in test [1] and in test [2] were 124 nM and 1 nM, respectively.

As to `C[C@H](N)C(=O)NCC(=O)N[C@H]1CSSC[C@@H](C(=O)O)NC(=O)[C@H](CO)NC(=O)[C@H]([C@@H](C)O)NC(=O)[C@H](Cc2ccccc2)NC(=O)[C@H]([C@@H](C)O)NC(=O)[C@H](CCCCN)NC(=O)[C@@H](Cc2c[nH]c3ccccc23)NC(=O)[C@H](Cc2ccccc2)NC(=O)[C@H](Cc2cnccn2)NC(=O)[C@H](CC(N)=O)NC(=O)[C@H](CCCCN)NC1=O`, the Ki in test [1] is 60 nM; in test [3] it was 77 nM; in test [2], 1 nM; in test [4], 7 nM.

`C[C@H](N)C(=O)NCC(=O)N[C@H]1CSSC[C@@H](C(N)=O)NC(=O)[C@H](CO)NC(=O)[C@H]([C@@H](C)O)NC(=O)[C@H](Cc2ccccc2)NC(=O)[C@H]([C@@H](C)O)NC(=O)[C@H](CCCCN)NC(=O)[C@H](Cc2c[nH]c3ccccc23)NC(=O)[C@H](Cc2ccccc2)NC(=O)[C@H](C)NC(=O)[C@H](CC(N)=O)NC(=O)[C@H](CCCCN)NC1=O` (H-AGCKNAFWKTFTSC-NH2; disulfide 3-14) returned a Ki in test [1] of 80 nM.

The molecule `C[C@H](N)C(=O)NCC(=O)N[C@H]1CSSC[C@@H](C(N)=O)NC(=O)[C@H](CO)NC(=O)[C@H]([C@@H](C)O)NC(=O)[C@H](C)NC(=O)[C@H]([C@@H](C)O)NC(=O)[C@H](CCCCN)NC(=O)[C@H](Cc2c[nH]c3ccccc23)NC(=O)[C@H](Cc2ccccc2)NC(=O)[C@H](Cc2ccccc2)NC(=O)[C@H](CC(N)=O)NC(=O)[C@H](CCCCN)NC1=O` (H-AGCKNFFWKTATSC-NH2; disulfide 3-14) returned a Ki in test [1] of less than 1 nM.

As for `C[C@H](N)C(=O)NCC(=O)N[C@H]1CSSC[C@@H](C(=O)O)NC(=O)[C@H](CO)NC(=O)[C@H]([C@@H](C)O)NC(=O)[C@H](Cc2ccccc2)NC(=O)[C@H]([C@@H](C)O)NC(=O)[C@H](CCCCN)NC(=O)[C@@H](Cc2c[nH]c3ccccc23)NC(=O)[C@H](Cc2cnccn2)NC(=O)[C@H](Cc2ccccc2)NC(=O)[C@H](CC(N)=O)NC(=O)[C@H](CCCCN)NC1=O`, the Ki was 700 nM in test [1] and greater than 1000 nM in test [2].

The values are drawn from ChEMBL document CHEMBL1139540, “Replacement of Phe6, Phe7, and Phe11 of D-Trp8-somatostatin-14 with L-pyrazinylalanine. Predicted and observed effects on binding affinities at hSST2 and hSST4. An unexpected effect of the chirality of Trp8 on NMR spectra in methanol” (J Med Chem, 2005).
